“Also recorded” adds a separate entry of the source.
Experiments:
Format in all cases: cell-based, rat
Conditions in all cases: 100 nM; listed as (inip)-bbFK-NH2
[1] = test system: FSH; assay: FSH release from pituitary cells (RIA)
Procedure: (§1) Dispersion: Adult female Sprague-Dawley (160-180 g., Charles River) rats were group-caged in a 12:12 light:dark cycle with food and water available ad libitum. Pituitaries from ten rats were removed, the posterior pituitary discarded and the anterior pituitary placed in Hanks' Balanced Salt Solution (HBSS: without calcium chloride, w/o magnesium chloride, w/o magnesium sulfate; Gibco) containing 20 mM HEPES (Gibco) and 100 U/ml penicillin streptomycin (PS: JRH Biosciences). Under sterile conditions, pituitaries were rinsed twice then minced into small fragments with a razor blade. Fragments were resuspended in 5 ml of HBSS/HEPES containing 20 mg collagenase (Serva 17449) and […] of 1 mg/ml DNase (Sigma) for a 40 min. incubation in a 37° C. gyrotory water bath shaker (New Brunswick Scientific Model G76; setting 10). […] The cells were centrifuged 1000× g for 5 min, resuspended, counted and plated at a final cell concentration of 100,000 cells/ml. […] STATISTICS: The mean for each group was determined and analyzed by one-way analysis of variance with a post-hoc Student-Newman-Keuls. […] The EC50 was calculated using a 4-parameter curve-fit program (Kaleidagraph). […] RIA of pituitary hormones: LH, FSH, TSH, and Prolactin were determined with commercially available kits from Amersham, and ACTH levels were determined by a RIA kit from ICN. […]

[2] = test system: TSH; assay: TSH release from pituitary cells (RIA)
Procedure: as §1

[3] = test system: LH; assay: LH release from pituitary cells (RIA)
Procedure: as §1

Q: How did the FSH release [1] turn out when `NCCCC[C@H](NC(=O)[C@H](Cc1ccccc1)NC(=O)[C@@H](Cc1ccc2ccccc2c1)NC(=O)[C@@H](Cc1ccc2ccccc2c1)NC(=O)C1CCNCC1)C(N)=O` [(inip) b b F K amide, (inip)-DβNal-DβNal-Phe-Lys-amide] was run?
A: Its FSH release is “had no effect on these hormone concentrations; also recorded: unchanged”.

Q: What about the TSH release [2] of the same compound?
A: The TSH release was “had no effect on these hormone concentrations; also recorded: unchanged”.

Q: And the LH release [3]?
A: Its LH release is “had no effect on these hormone concentrations; also recorded: unchanged”.
